Positions of bridges follow the written chain, without caps; N, C: chain ends. Non-standard residues stand in square brackets, D forms with d. Residues, ends and D or L forms follow the SMILES beside them. ξ: configuration not given here. *: point of attachment. NMeF = CN[C@@H](Cc1ccccc1)C(=O)O; NMeI = CC[C@H](C)[C@H](NC)C(=O)O; NMeL = CN[C@@H](CC(C)C)C(=O)O; NMeV = CN[C@H](C(=O)O)C(C)C; NMeA = CN[C@@H](C)C(=O)O; Piperidide = C1CCN(*)CC1; ξL = CC(C)CC(N)C(=O)O; Sar = CNCC(=O)O
test: Metabolic stability in human hepatic microsome; format: in vitro ADME; conditions: human, microsomes, CL NADPH(+)

| Structure (SMILES) | microsomal CLint |
| --- | --- |
| CC[C@H](C)[C@@H]1NC(=O)[C@H](Cc2ccccc2)NC(=O)[C@@H]2CCCN2C(=O)[C@H](CC(C)C)N(C)C(=O)[C@H](Cc2ccccc2)NC(=O)[C@H](CC(C)C)NC(=O)[C@H]([C@@H](C)O)NC(=O)[C@H](C)N(C)C(=O)[C@H](C(C)C)NC(=O)[C@H](C)NC(=O)C[C@@H](C(=O)N2CCCCC2)NC(=O)[C@H](CC(C)C)NC(=O)CN(C)C1=O [DP-21] (AV[NMeA]TLF[NMeL]PFI[Sar]LD-Piperidide; lactam N-13) | 25 µL/min/mg |

same assay, conditions: human, microsomes, pH 7.4, CL NADPH(+)

| Structure (SMILES) | microsomal CLint at 1 uM |
| --- | --- |
| CC(C)C[C@@H]1NC(=O)[C@H](CC(C)C)N(C)C(=O)[C@H](C)N(C)C(=O)[C@H](C(C)C)NC(=O)[C@H](Cc2ccccc2)NC(=O)CNC(=O)[C@H]([C@@H](C)O)NC(=O)[C@H](CC(C)C)NC(=O)[C@@H]2CCCN2C(=O)[C@H](Cc2ccccc2)NC(=O)[C@H](C)NC(=O)C[C@@H](C(=O)N2CCCCC2)NC1=O [DP-23] (AFPLTGFV[NMeA][NMeL]LD-Piperidide; lactam N-12) | 105 µL/min/mg |
| CC[C@H](C)[C@@H]1NC(=O)[C@H](Cc2ccccc2)N(C)C(=O)[C@H](Cc2ccccc2)NC(=O)[C@H](CC(C)C)NC(=O)[C@H](CC(C)C)N(C)C(=O)[C@H](C)N(C)C(=O)[C@H](C(C)C)NC(=O)[C@H](C)NC(=O)C[C@@H](C(=O)N2CCCCC2)NC(=O)[C@H](CC(C)C)N(C)C(=O)[C@H]([C@@H](C)O)NC(=O)[C@@H]2CCCN2C1=O [DP-25] (AV[NMeA][NMeL]LF[NMeF]IPT[NMeL]D-Piperidide; lactam N-12) | 24 µL/min/mg |
| CC[C@H](C)[C@H]1C(=O)N[C@@H](Cc2ccccc2)C(=O)N(C)[C@@H](Cc2ccccc2)C(=O)N[C@@H]([C@@H](C)O)C(=O)N2CCC[C@H]2C(=O)N[C@@H](CC(C)C)C(=O)N[C@H](C(=O)N2CCCCC2)CC(=O)N[C@@H](C)C(=O)NCC(=O)N(C)[C@@H](C(C)C)C(=O)N(C)[C@@H](CC(C)C)C(=O)N[C@@H](C)C(=O)N1C [DP-26] (AG[NMeV][NMeL]A[NMeI]F[NMeF]TPLD-Piperidide; lactam N-12) | 62 µL/min/mg |
| CC[C@H](C)[C@@H]1NC(=O)[C@H](C)NC(=O)C[C@@H](C(=O)N2CCCCC2)NC(=O)[C@H](C(C)C)NC(=O)[C@H](Cc2ccccc2)N(C)C(=O)[C@H](CC(C)C)NC(=O)[C@H]([C@@H](C)O)NC(=O)[C@H](Cc2ccccc2)NC(=O)[C@H](C)NC(=O)CN(C)C(=O)[C@H](CC(C)C)NC1=O [DP-28] (AIL[Sar]AFTL[NMeF]VD-Piperidide; lactam N-11) | 113 µL/min/mg |
| CC[C@H](C)[C@@H]1NC(=O)[C@H](CC(C)C)N(C)C(=O)CNC(=O)[C@H](C)NC(=O)C[C@@H](C(=O)N2CCCCC2)NC(=O)[C@@H]2CCCN2C(=O)[C@H](CC(C)C)NC(=O)[C@H](Cc2ccccc2)NC(=O)[C@H]([C@@H](C)O)NC(=O)[C@H](Cc2ccccc2)N(C)C(=O)[C@H](C)N(C)C1=O [DP-30] (AG[NMeL]I[NMeA][NMeF]TFLPD-Piperidide; lactam N-11) | 63 µL/min/mg |
| CC[C@H](C)[C@H]1C(=O)N[C@@H](C)C(=O)N(C)[C@@H](Cc2ccccc2)C(=O)N[C@@H]([C@@H](C)O)C(=O)N(C)[C@@H](CC(C)C)C(=O)N[C@@H](Cc2ccccc2)C(=O)N(C)[C@@H](C(C)C)C(=O)N[C@H](C(=O)N2CCCCC2)CC(=O)N[C@@H](C)C(=O)NCC(=O)N(C)[C@@H](CC(C)C)C(=O)N1C [DP-31] (AG[NMeL][NMeI]A[NMeF]T[NMeL]F[NMeV]D-Piperidide; lactam N-11) | 57 µL/min/mg |
| CC(C)C[C@@H]1NC(=O)[C@H](C)N(C)C(=O)[C@H](C(C)C)N(C)C(=O)[C@H](Cc2ccccc2)NC(=O)CN(C)C(=O)[C@H]([C@@H](C)O)NC(=O)[C@@H]2CCCN2C(=O)[C@H](CC(C)C)NC(=O)[C@H](C)NC(=O)C[C@@H](C(=O)N2CCCCC2)NC(=O)[C@H](CC(C)C)N(C)C1=O [DP-32] (ALPT[Sar]F[NMeV][NMeA]L[NMeL]D-Piperidide; lactam N-11) | 26 µL/min/mg |
| CC[C@H](C)[C@@H]1NC(=O)[C@H](Cc2ccccc2)N(C)C(=O)[C@H](Cc2ccccc2)NC(=O)[C@H](CC(C)C)N(C)C(=O)[C@H](CC(C)C)NC(=O)[C@H](C)NC(=O)C[C@@H](C(=O)N2CCCCC2)NC(=O)[C@H]([C@@H](C)O)NC(=O)[C@@H]2CCCN2C1=O [DP-33] (AL[NMeL]F[NMeF]IPTD-Piperidide; lactam N-9) | 202 µL/min/mg |
| CC[C@H](C)[C@@H]1NC(=O)[C@H](C)NC(=O)C[C@@H](C(=O)N2CCCCC2)NC(=O)[C@@H]2CCCN2C(=O)C(CC(C)C)NC(=O)[C@H](Cc2ccccc2)N(C)C(=O)[C@H]([C@@H](C)O)NC(=O)[C@H](Cc2ccccc2)N(C)C(=O)[C@H](C)N(C)C1=O (stereo partly drawn) [DP-34] (AI[NMeA][NMeF]T[NMeF][ξL]PD-Piperidide; lactam N-9) | 102 µL/min/mg |
| CC[C@H](C)[C@H](NC(=O)[C@H](C)NC(=O)CNC(=O)[C@@H]1CC(=O)N[C@@H](C)C(=O)N[C@@H](CC(C)C)C(=O)N[C@@H]([C@@H](C)O)C(=O)N(C)[C@@H](CC(C)C)C(=O)N[C@@H](Cc2ccccc2)C(=O)N2CCC[C@H]2C(=O)N[C@@H](C(C)C)C(=O)N[C@@H](Cc2ccccc2)C(=O)N(C)[C@@H](CC(C)C)C(=O)N1)C(=O)N1CCCCC1 [DP-42] (ALT[NMeL]FPVF[NMeL]DGAI-Piperidide; lactam N-10) | 17 µL/min/mg |
| CC[C@H](C)[C@H](NC(=O)[C@H](CC(C)C)N(C)C(=O)[C@@H]1CC(=O)N[C@@H](C)C(=O)N[C@@H](Cc2ccccc2)C(=O)N2CCC[C@H]2C(=O)N[C@@H](CC(C)C)C(=O)N[C@@H]([C@@H](C)O)C(=O)N[C@@H](CC(C)C)C(=O)N[C@@H](Cc2ccccc2)C(=O)N(C)[C@@H](C(C)C)C(=O)N[C@@H](C)C(=O)N1)C(=O)N1CCCCC1 [DP-43] (AFPLTLF[NMeV]AD[NMeL]I-Piperidide; lactam N-10) | 44 µL/min/mg |
| CC[C@H](C)[C@H](NC(=O)[C@@H]1CCCN1C(=O)[C@@H](NC(=O)[C@@H]1CC(=O)N[C@@H](C)C(=O)N[C@@H](CC(C)C)C(=O)N(C)[C@@H](CC(C)C)C(=O)N[C@@H](C)C(=O)N[C@@H](CC(C)C)C(=O)N(C)[C@@H](Cc2ccccc2)C(=O)N[C@@H](Cc2ccccc2)C(=O)N1)[C@@H](C)O)C(=O)N1CCCCC1 [DP-45] (AL[NMeL]AL[NMeF]FDTPI-Piperidide; lactam N-8) | 129 µL/min/mg |

same assay, conditions: microsomes, pH 7.4; human hepatic microsome, NADPH(+); read-out: CL NADPH(+)

| Structure (SMILES) | microsomal CLint at 1 uM |
| --- | --- |
| CC[C@H](C)[C@H]1C(=O)N[C@H](C(=O)N2CCCCC2)CC(=O)N[C@@H](C)C(=O)N[C@@H]([C@@H](C)O)C(=O)N(C)[C@@H](Cc2ccccc2)C(=O)N[C@@H](CC(C)C)C(=O)N2CCC[C@H]2C(=O)N[C@@H](C(C)C)C(=O)N[C@@H](Cc2ccccc2)C(=O)N(C)CC(=O)N[C@@H](CC(C)C)C(=O)N[C@@H](C)C(=O)N1C [DP-24] (AT[NMeF]LPVF[Sar]LA[NMeI]D-Piperidide; lactam N-12) | 52 µL/min/mg |
| CC[C@H](C)[C@H]1C(=O)N[C@H](C(=O)N2CCCCC2)CC(=O)N[C@@H](C)C(=O)N[C@@H]([C@@H](C)O)C(=O)N(C)[C@@H](Cc2ccccc2)C(=O)N[C@@H](CC(C)C)C(=O)N2CCC[C@H]2C(=O)N(C)[C@@H](C(C)C)C(=O)N[C@@H](Cc2ccccc2)C(=O)N(C)CC(=O)N(C)[C@@H](CC(C)C)C(=O)N[C@@H](C)C(=O)N1C [DP-27] (AT[NMeF]LP[NMeV]F[Sar][NMeL]A[NMeI]D-Piperidide; lactam N-12) | 31 µL/min/mg |

Reference: patent US9409952B2, “Peptide-compound cyclization method” (Chugai Seiyaku Kabushiki Kaisha, priority 2011, dated 2016)
